Reference: ChEMBL document CHEMBL1147218, “New bioactive diterpene polyesters from Euphorbia decipiens” (J Nat Prod, 2003)

Tests used:
Saccharomyces cerevisiae [1] = experiment: DNA damaging activity against DNA repair-deficient RS 322YK (rad 52Y) yeast assessed as drug level required to produce 12 mm zone of inhibition; format: functional
Saccharomyces cerevisiae [2] = experiment: DNA damaging activity against wild type (Rad+) yeast assessed as drug level required to produce 12 mm zone of inhibition; format: functional
Prolyl endopeptidase = Prolyl endopeptidase (Elizabethkingia meningoseptica, UniProt P27028); experiment: Inhibition of Flavobacterium meningosepticum […]
Sequence of Prolyl endopeptidase (P27028 21-705 limits assumed): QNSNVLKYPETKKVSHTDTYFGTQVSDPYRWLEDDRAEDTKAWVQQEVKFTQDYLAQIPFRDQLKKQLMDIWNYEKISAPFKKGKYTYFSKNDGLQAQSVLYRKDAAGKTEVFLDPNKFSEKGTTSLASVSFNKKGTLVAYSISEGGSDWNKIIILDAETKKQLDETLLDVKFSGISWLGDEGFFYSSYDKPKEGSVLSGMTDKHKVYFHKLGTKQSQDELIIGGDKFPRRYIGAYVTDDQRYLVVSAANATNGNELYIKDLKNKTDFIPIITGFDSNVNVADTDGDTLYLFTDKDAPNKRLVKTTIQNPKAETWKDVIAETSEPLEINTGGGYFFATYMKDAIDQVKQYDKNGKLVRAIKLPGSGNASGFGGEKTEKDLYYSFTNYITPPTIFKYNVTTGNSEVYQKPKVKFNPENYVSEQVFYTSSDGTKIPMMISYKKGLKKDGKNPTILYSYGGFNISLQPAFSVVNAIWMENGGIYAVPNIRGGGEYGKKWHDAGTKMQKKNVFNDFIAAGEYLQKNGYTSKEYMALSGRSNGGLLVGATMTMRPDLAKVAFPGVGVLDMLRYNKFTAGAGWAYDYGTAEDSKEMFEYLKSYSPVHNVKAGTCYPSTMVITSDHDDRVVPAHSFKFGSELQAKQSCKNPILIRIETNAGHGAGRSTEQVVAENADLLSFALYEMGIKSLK

IC50 (Prolyl endopeptidase) [µM] | SMILES | IC12 (Saccharomyces cerevisiae [1]) [µg/mL] | IC12 (Saccharomyces cerevisiae [2]) [µg/mL]
 | CC(=O)OC[C@@]12[C@H](OC(C)=O)[C@H]3[C@@H](OC(C)=O)[C@@H](C)C[C@]3(OC(C)=O)C(=O)[C@@]3(C)OC(C)(C)[C@@H](C=C[C@H]1OC(=O)c1ccccc1)[C@H]23 | 750 | 1090
16.9 | CC(=O)OC[C@@]12[C@H](OC(C)=O)[C@H]3[C@@H](OC(C)=O)[C@@H](C)C[C@]3(O)C(=O)[C@@]3(C)OC(C)(C)[C@@H](C=C[C@H]1OC(=O)c1ccccc1)[C@H]23 |  | 
 | CC[C@@]1(O)C(=O)OCc2c1cc1n(c2=O)Cc2cc3ccccc3nc2-1 [CAMPTOTHECIN] | 12 | 75
